Laboratory results published in US7094533B1, “Therapeutic and diagnostic applications of prostatic acid phosphatase in prostate cancer” (Board of Regents of the University of Nebraska, priority 1999, dated 2006).
Where two headings read alike, the source gives them in different places.

Assays:
[1] = system: DU145 cells; settings: counted at day 3 (FIG. 1A)
Excerpt: (§1) Cell Cultures. Human prostate carcinoma cell lines, LNCaP-FGC (LNCaP) (Horoszewicz et al., 1983, Cancer Res. 43:1809–1818), DU145 (Stone et al., 1978, Int. J. Cancer 21:274–281), and PC-3 (Kaighn et al., 1979, Invest. Urol. 17:16–23), were originally obtained from the American Type Culture Collection (Rockville, Md.) and routinely maintained in RPMI 1640 medium supplemented with 7% FBS, 1% glutamine, and 0.5% gentamicin, as described previously (Lin et al., 1992, Cancer Res. 52, 4600–4607; Lin et al., 1986, Mol. Cell. Biol. 6:4753–4757). Cultured cells were fed twice per week and trypsinized once per week; one passage equals one trypsinization. […] For experiments, LNCaP cells that had passage numbers less than 33 were designated as clone 33, passage numbers over 80 as clone 81, and passage numbers between 34 and 80 as clone 51. To investigate basal growth rates of different subcloned cells, cells were seeded and maintained in steroid-reduced medium containing 5% heat-inactivated dialyzed FBS. To quantify cell growth, attached cells were trypsinized and neutralized with medium-FBS. The total cell number including the suspended and attached cells were counted using a hemocytometer via trypan blue exclusion or a Coulter Counter Z1 model (Lin et al., 1992, Cancer Res. 52, 4600–4607; Lin et al., 1994, Differentiation 57:143–149).
(§2) Androgen Effect on Cell Growth, Protein Tyrosine Phosphorylation, PSA, and PAcP Expression. Cells were plated at a density of approximately 1×10^4 cells/cm^2 in RPMI 1640 medium containing 7% FBS and maintained in a 37° C. incubator (5% CO^2) for 3 days (Lin et al., 1992, Cancer Res. 52, 4600–4607; Lin et al., 1993, Arch. Biochem. Biophys. 300:384–390; both are incorporated by reference herein). To investigate androgen effect on cell growth and protein tyrosine phosphorylation, cells that had been maintained in the steroid-reduced medium containing 5% heat-inactivated dialyzed FBS for an additional 48 h were grown in fresh steroid-reduced medium in the presence or absence of different concentrations of DHT. After a time period specified in each set of experiments, cells were harvested and then counted using a hemocytometer or Coulter Counter (Lin et al., 1992, Cancer Res. 52, 4600–4607; Lin et al., 1994, Differentiation 57:143–149; incorporated by reference herein). The cell number in the control well was defined as ratio 1.0.
(§3) In FIG. 1A, the total cell number was counted at day 3 for PC-3 and DU145 cells and at day 4 fro LNCaP cells.

[2] = system: PC-3 cells; settings: counted at day 3 (FIG. 1A)
Excerpt: as §1, §2, §3

[3] = system: clone 33 LNCaP cells; settings: 10 nM DHT
Excerpt: as §1, §2, §3

[4] = system: clone 81 LNCaP cells; settings: 10 nM DHT, 7-day treatment, clone 81 LNCaP (FIG. 2A)
Excerpt: as §1, §2, §3

[5] = system: LNCaP-23 and LNCaP-34 cells; settings: LNCaP-23 and LNCaP-34 versus clone 81 parent and LNCaP-CMV cells, different concentrations of DHT (FIG. 5D)
Procedure: as §2

[6] = system: PC-411 and PC-416 cells; settings: p<0.05 (FIG. 6D)
Procedure: as §2

[7] = system: PSA mRNA; settings: each clone of LNCaP cells (33, 51, 81), 10 nM DHT, 3 days
Excerpt: (§4) Cells were harvested for preparation of total RNA and total cell lysate proteins as described below.

[8] = system: cellular PAcP; settings: clone 33 LNCaP cells exposed to DHT (FIG. 3B)
Excerpt: as §4
Western Blot Analysis. Subconfluent cells were trypsinized, pelleted, and rinsed with Hepes-buffered saline, pH 7.0, and then lysed in a hypotonic cell lysis buffer containing various protease inhibitors as described above. […] The relative levels of AR and PAcP protein were semiquantified by densitometric analyses of autoradiograms with different exposure time periods utilizing Molecular Dynamics equipment and software program.

[9] = system: PAcP mRNA in LNCaP cells
Excerpt: Nuclear run-on experiment. […] Transcription was continued in the presence of “P-labeled UTP (Amersham. Life Science Inc.). The radioactive RNA was hybridized with a slot blot membrane containing the full length of PAcP cDNA.

[10] = biological target: T1, PAcP (Homo sapiens, UniProt P15309); settings: 20 nM okadaic acid; cited from earlier work
T1 sequence (P15309 33-386): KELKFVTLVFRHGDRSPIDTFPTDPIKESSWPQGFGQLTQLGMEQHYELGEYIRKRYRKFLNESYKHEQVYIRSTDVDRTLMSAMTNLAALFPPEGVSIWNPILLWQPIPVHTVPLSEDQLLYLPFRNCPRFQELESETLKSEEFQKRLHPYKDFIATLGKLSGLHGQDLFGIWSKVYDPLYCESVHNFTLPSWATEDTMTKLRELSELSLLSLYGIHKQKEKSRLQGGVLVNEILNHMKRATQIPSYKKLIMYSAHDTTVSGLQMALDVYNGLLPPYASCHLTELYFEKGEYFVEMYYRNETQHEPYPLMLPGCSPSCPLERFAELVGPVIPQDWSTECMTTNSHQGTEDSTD

[11] = system: AR in PC-3 cells; assay: Chloramphenicol acetyltransferase assay (pMSG-CAT reporter); format: cell-based, human; settings: 10 nM R1881, 24 h, PC-3 cell lysate proteins (FIG. 6A)
Excerpt: (§5) Chloramphenicol Acetyltransferase Assay.

[12] = system: DU 145 cells; assay: as above; format: cell-based, human; settings: 10 nM R1881, DU 145 cells
Excerpt: as §5

[13] = system: human AR cDNA-transfected PC-3 cells; settings: 10 nM R1881, 24 h, human AR cDNA-transfected PC-3 cells (FIG. 6A)
Procedure: Chloramphenicol Acetyltransferase Assay. Cells that had been grown in medium containing 5% charcoal-stripped FBS were transfected with the pMSG-CAT reporter plasmid, pSG5 vector DNA, or pSG5-AR plasmid by the liposome-mediated transfection method (Lin et al., 1992, Cancer Res. 52, 4600–4607; Felgner et al., 1987, Proc. Natl. Acad. Sci. U.S.A. 84:7413–7417). After a 24-h incubation period, cells were maintained in medium supplemented with 5% steroid-reduced FBS in the presence or absence of 10 nM R1881, a synthetic androgen, in ethanol (0.01%, v/v). After an additional 24-h incubation, CAT assays were performed as described (Felgner et al., 1987, Proc. Natl. Acad. Sci. U.S.A. 84:7413–7417; Moszowicz et al., 1993, Mol. Endocrinol. 7:1861–869).

[14] = system: PAcP cDNA transfected C-81 LNCaP cells; assay: Anchorage-independent growth, soft agar analysis; format: cell-based, human; settings: LNCaP-23, -28, -40 cells, colonies after 3 weeks (FIG. 9B)
Procedure: (§6) Anchorage-independent growth. Anchorage-independent growth of prostate cancer cells was performed by soft agar analysis (Weiner et al., 1989, Oncogene 4:1175–1183; Horoszewicz et al., 1983, Cancer Res. 43:1809–1818). Briefly, cells were seeded in 0.25% agarose on the top of a base layer containing 0.6% agarose. One day after seeding, cell clumps containing more than one cell were excluded and the colony number was counted after 3 weeks of incubation.

[15] = system: PC-416 cells; assay: Anchorage-independent growth, soft agar analysis; format: cell-based, human; settings: PC-416 cells (FIG. 9C)
Procedure: as §6

[16] = system: LNCaP xenograft tumors; assay: Subcutaneous xenograft tumors in male athymic mice, LNCaP cells; format: in vivo; settings: 28 days after inoculation (C-81 LNCaP 241)
Procedure: (§7) Xenograft animal experiments. The protocol for the subcutaneous xenograft animal model in athymic mice was essentially as that described in Lin et al., 1995 (The Prostate 26:194–204). For comparing the tumorigenicity of different LNCaP cells, 1×10^6 cells were suspended in 0.1 ml medium, mixed with 0.1 ml matrigel (Collaborative Biomedical, MA), and injected subcutaneously in the hind flank of male mice. For examining the hormone effect on tumor development, 5×10^5 cells in matrigel were injected into female mice. For the PC-3 cell system, 1×10^6 cells in 0.2 ml medium suspension without matrigel were injected into male mice. The animal maintenance and the tumor measurement were followed the NIH guidelines and the specific guideline by the University of Nebraska Medical Center as previously described (Lin et al., 1995, The Prostate 26:194–204).

[17] = system: LNCaP xenograft tumors; assay: Subcutaneous xenograft tumors in female athymic mice, LNCaP cells; format: in vivo; settings: for mice that did not develop any tumor: female, after 100 days of inoculation; for averaged tumor size: 70 days
Procedure: as §7

[18] = system: PC-3 xenograft tumors; assay: Subcutaneous xenograft tumors in male athymic mice, PC-3 cells; format: in vivo; settings: for xenograft tumor size as % of PC-3 xenograft tumors: 42 days; for xenograft tumor size: 42 days after cell injection (PC-3 612 mm^3)
Procedure: as §7

In the case of C[C@]12CCC(=O)C[C@@H]1CC[C@@H]1[C@@H]2CC[C@]2(C)[C@@H](O)CC[C@@H]12 [DHT, 5α-dihydrotestosterone], the “effect on cell growth” value [1] is reported as “did not have a significant effect”, the “effect on cell growth” value [2] is reported as “did not have a significant effect” and the “stimulatory effect on cell growth” value ([3]; 7-day treatment, clone 33 LNCaP (FIG. 2A)) is reported as no more than 2.5 fold. For the same molecule, the “stimulation of cell growth” value ([3]; clone 33 LNCaP, steroid-reduced medium, counted at day 4 (FIG. 1A)) was 1.5–2 fold, the “stimulation of cell growth” value [4] was roughly 20% and the “degree of androgen stimulation of cell growth” value [5] was “enhanced”. For the same molecule, the “effect on cell growth” value [6] was “stimulated significantly”, the “induction of PSA mRNA, normalized to GAPDH” value [7] was 2–3 fold and the “cellular PAcP level” value [8] was “diminished level”. For the same molecule, the “transcription of PAcP mRNA” value ([9]; high density LNCaP cells (FIG. 11B)) was “suppressed” and the “transcription of PAcP mRNA” value ([9]; low density LNCaP cells (FIG. 11B)) was “stimulated”.

In the case of C=C1[C@@H](O)[C@@H]2O[C@]3(CC[C@H](/C=C/[C@@H](C)[C@@H]4CC(C)=C[C@@]5(O[C@H](C[C@@](C)(O)C(=O)O)CC[C@H]5O)O4)O3)CC[C@H]2O[C@@H]1[C@@H](O)C[C@H](C)[C@H]1O[C@@]2(CCCCO2)CC[C@H]1C [okadaic acid], the “effect on PAcP activity” value [10] is listed as “not affected”.

With C[C@]1(O)CC[C@H]2[C@@H]3CCC4=CC(=O)CCC4=C3C=C[C@@]21C [R1881] the “stimulation of the CAT activity” value [11] was roughly 2 fold, the “effect on the CAT activity” value [12] was “did not have an effect” and the “stimulation of the CAT activity” value [13] was roughly 9 fold.

B1: cellular PAcP: cellular form of human prostatic acid phosphatase, expressed from full-length human PAcP cDNA driven by a pCMV-neo expression vector (protein)
chain: KELKFVTLVFRHGDRSPIDTFPTDPIKESSWPQGFGQLTQLGMEQHYELGEYIRKRYRKFLNESYKHEQVYIRSTDVDRTLMSAMTNLAALFPPEGVSIWNPILLWQPIPVHTVPLSEDQLLYLPFRNCPRFQELESETLKSEEFQKRLHPYKDFIATLGKLSGLHGQDLFGIWSKVYDPLYCESVHNFTLPSWATEDTMTKLRELSELSLLSLYGIHKQKEKSRLQGGVLVNEILNHMKRATQIPSYKKLIMYSAHDTTVSGLQMALDVYNGLLPPYASCHLTELYFEKGEYFVEMYYRNETQHEPYPLMLPGCSPSCPLERFAELVGPVIPQDWSTECMTTNSHQGTEDSTD
In the case of B1, the “decrease of anchorage-independent growth” value [14] is reported as “more than 100 folds”, the anchorage-independent growth [15] is reported as “diminished” and the averaged tumor size ([16]; LN-23 cells) is reported as 143 mm^3. For the same molecule, the averaged tumor size ([16]; LN-34 cells) was 115 mm^3, the tumor induction ([17]; LN-23 and LN-40 cells, female mice, 35 days after inoculation (clone-81 782 mm^3)) was “no detectable tumor” and the “mice that did not develop any tumor” value ([17]; LN-23 mice) was 20%. For the same molecule, the averaged tumor size ([17]; LN-23 tumors, female mice) was 347 mm^3, the “mice that did not develop any tumor” value ([17]; LN-40 mice) was 50% and the averaged tumor size ([17]; LN-40 tumors, female mice) was 214 mm^3. For the same molecule, the “xenograft tumor size as % of PC-3 xenograft tumors” value ([18]; PC-412, male mice) was “about 38%”, the xenograft tumor size ([18]; PC-412, male mice) was 233 mm^3 and the “xenograft tumor size as % of PC-3 xenograft tumors” value ([18]; PC-416, male mice) was roughly 23%. The xenograft tumor size ([18]; PC-416, male mice) was 138 mm^3.
